Measured values reported in patent US20240067651A1 (Biohaven Therapeutics Ltd., priority 2019, published 2024).

Experiments:
[1] = Stability in Simulated Gastric Fluid (SGF); assay type: in vitro ADME; design: key: % parent compound remaining relative to 0-minute sample
Procedure, shortened: (§1)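 2 μg/mL final; SGF + pepsin pH 1.2 or SIF + pancreatin pH 6.8; 37° C, 150 rpm, 0–60 min. ACN quench with propranolol IS, LC-MS/MS. % parent vs 0 min; t1/2 from ln plot.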

[2] = Stability in Simulated Intestinal Fluid (SIF); assay type: in vitro ADME; design: key: % parent compound remaining relative to 0-minute sample
Procedure, shortened: as §1

Plasma Stability = assay type: in vitro ADME, human
Procedure, shortened: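 Parent compound quantified by LC-MS/MS after acetonitrile precipitation, reported as percent of control remaining (triplicate). Incubation: 1 hour, 37° C, fresh human plasma, compound at 1 μM.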

[3] = Caco-2 Permeability Assay; assay type: in vitro ADME, human; settings: human
Procedure, shortened: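 Bidirectional transport at 37 °C for 90 min, 10 μM donor concentration, with or without Pgp inhibitor, across 21-day Caco-2 monolayers with TEER >600 […] in HEPES-buffered HBSS, pH 7.4. LC-MS/MS of donor and receiver samples gives Papp, B→A/A→B efflux ratio and mass recovery.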

[4] = simulated gastric fluid, at 1 h
[5] = simulated intestinal fluid, at 1 h
[6] = Caco-2, pH 7.4, Caco-2 monolayer
[7] = bare number, unit or time not given, the 15th table Examples 204-207
[8] = % remaining at 1 h in human plasma, the 15th table
[9] = Caco-2, pH 7.4, Caco-2 monolayer, the 15th table
[10] = % remaining at 1 h in simulated gastric fluid
[11] = % remaining at 1 h in simulated intestinal fluid
[12] = % remaining at 1 h in human plasma
[13] = % remaining at 1 h in simulated gastric fluid, the 15th table
[14] = % remaining at 1 h in simulated intestinal fluid, the 15th table
[15] = % remaining at 1 h in simulated gastric fluid, the 17th table
[16] = % remaining at 1 h in simulated intestinal fluid, the 17th table
[17] = % remaining at 1 h in human plasma, the 17th table
[18] = Caco-2, pH 7.4, Caco-2 monolayer, the 17th table
[19] = bare number, no % and no time given
[20] = % remaining at 1 h, human plasma, 1 μM, 37° C.
[21] = Caco-2, pH 7.4, donor 10 μM, 90 minutes, 37° C., direction not given
[22] = % remaining at 1 h, SGF with pepsin pH 1.2, 2 μg/mL, 37° C.
[23] = % remaining at 1 h, SIF with pancreatin pH 6.8, 2 μg/mL, 37° C.
[24] = bare number, unit or time not given

For `Cc1cccc(N(C)C(=O)OCSc2nc(=O)c3[nH]ccc3n2CCOC(C)C)c1` [Example 245], the SGF [1, 4] was 99% remaining, the SIF [2, 5] was 99% remaining and the “human Plasma stability” value (Plasma Stability; human plasma, at 1 h) was 63% remaining. The Papp at 90 min, 10 µM [3, 6] was 21.6 ×10⁻⁶ cm/s.
For `CCOC(=O)n1ccc2c1c(=O)[nH]c(=S)n2CCOC(C)C` [Example 230], the SGF [1, 4] was 99% remaining, the SIF [2, 5] was 33% remaining and the “human Plasma stability” value (Plasma Stability; human plasma, at 1 h) was 2% remaining. The Papp at 90 min, 10 µM [3, 6] was 0.456 ×10⁻⁶ cm/s.
With `CC(C)OCCn1c(SCOC(=O)[C@H](NC(=O)OC(C)(C)C)C(C)C)nc(=O)c2c1ccn2COC(=O)[C@H](NC(=O)OC(C)(C)C)C(C)C` [Example 299, {[5-({[(2R)-2-{[(tert-butoxy)carbonyl]amino}-3-methylbutanoyl]oxy}methyl)-4-oxo-1-[2-(propan-2-yloxy)ethyl]-1H,4H,5H-pyrrolo[3,2-d]pyrimidin-2-yl]sulfanyl}methyl (2R)-2-{[(tert-butoxy)carbonyl]amino}-3-methylbutanoate] the SGF ([1]; % remaining @ 1 h) was 54% @ 1 h, the SIF ([2]; % remaining @ 1 h) was 27% @ 1 h and the “human Plasma stability” value (Plasma Stability; % remaining @ 1 h) was 94% @ 1 h. For the same molecule, the Papp at 90 min, 10 µM ([3]; Caco-2, pH 7.4) was 15.8 ×10⁻⁶ cm/s.
With `CCCCCCCCOC(=O)OCSc1nc(=O)c2[nH]ccc2n1CCOC(C)C` [Example 206] the SGF [1, 7] was 91, the SIF [2, 7] was 1 and the “human Plasma stability” value (Plasma Stability; [8]) was 99% remaining. It also gave a Papp at 90 min, 10 µM [3, 9] of 0.138 ×10⁻⁶ cm/s.
With `CC(C)OCCn1c(=S)[nH]c(=O)c2c1ccn2COC(=O)CCNC(=O)[C@@H]1CCCN1C(N)=O.O=C(O)C(F)(F)F` [Example 62] the SGF [1, 10] was 99% remaining, the SIF [2, 11] was 99% remaining and the “human Plasma stability” value (Plasma Stability; [12]) was 91% remaining. For the same molecule, the Papp at 90 min, 10 µM [3, 6] was 0.162 ×10⁻⁶ cm/s.
In the case of `CCCNC(=O)OCSc1nc(=O)c2c(ccn2COC(=O)NCCC)n1CCOC(C)C` [Example 183], the SGF [1, 13] is reported as 94% @ 1 h, the SIF [2, 14] is reported as 99% @ 1 h and the “human Plasma stability” value (Plasma Stability; [8]) is reported as 92% @ 1 h. For the same molecule, the Papp at 90 min, 10 µM [3, 9] was 4.59 ×10⁻⁶ cm/s.
For `CC(C)OCCn1c(=S)[nH]c(=O)c2c1ccn2COC(=O)[C@H](Cc1ccccc1)NC(=O)OC(C)(C)C` [Example 302, {4-oxo-1-[2-(propan-2-yloxy)ethyl]-2-sulfanylidene-1H,2H,3H,4H,5H-pyrrolo[3,2-d]pyrimidin-5-yl}methyl (2S)-2-{[(tert-butoxy)carbonyl]amino}-3-phenylpropanoate], the SGF ([1]; % remaining @ 1 h) was 97% @ 1 h, the SIF ([2]; % remaining @ 1 h) was 5% @ 1 h and the “human Plasma stability” value (Plasma Stability; % remaining @ 1 h) was 67% @ 1 h. It also gave a Papp at 90 min, 10 µM ([3]; Caco-2, pH 7.4) of 4.48 ×10⁻⁶ cm/s.
For `CC(C)OCCn1c(=S)[nH]c(=O)c2c1ccn2COC(=O)CCNC(=O)[C@@H](N)CO.O=C(O)C(F)(F)F` [Example 44], the SGF [1, 10] was 96% remaining, the SIF [2, 11] was 1% remaining and the “human Plasma stability” value (Plasma Stability; [12]) was 5% remaining. For the same molecule, the Papp at 90 min, 10 µM [3, 6] was < 0.222 ×10⁻⁶ cm/s.
For `CC(C)OCCn1c(=S)[nH]c(=O)c2c1ccn2C(=O)Nc1ccccc1` [Example 227], the SGF [1, 15] was 100% remaining, the SIF [2, 16] was 95% remaining and the “human Plasma stability” value (Plasma Stability; [17]) was 99% remaining. The Papp at 90 min, 10 µM [3, 18] was 1.67 ×10⁻⁶ cm/s.
In the case of `CCCCCCOC(=O)OCn1c(=O)c2c(ccn2COC(=O)OCCCCCC)n(CCOC(C)C)c1=S` [Example 215], the SGF [1, 15] is reported as 94% remaining, the SIF [2, 16] is reported as 1% remaining and the “human Plasma stability” value (Plasma Stability; [17]) is reported as 88% remaining. It also gave a Papp at 90 min, 10 µM [3, 18] of 0.214 ×10⁻⁶ cm/s.
For `CC(C)OCCn1c(SCOC(=O)N(CC(F)(F)F)CC(F)(F)F)nc(=O)c2c1ccn2COC(=O)N(CC(F)(F)F)CC(F)(F)F` [Example 97, {2-[{{[bis(2,2,2-trifluoroethyl)carbamoyl]oxy}methyl)sulfanyl]-4-oxo-1-[2-(propan-2-yloxy)ethyl]-1H,4H,5H-pyrrolo[3,2-d]pyrimidin-5-yl}methyl N,N-bis(2,2,2-trifluoroethyl)carbamate], the SGF [1, 19] was 98, the SIF [2, 19] was 96 and the “human Plasma stability” value (Plasma Stability; [20]) was 99% remaining. It also gave a Papp at 90 min, 10 µM [3, 21] of 30.8 ×10⁻⁶ cm/s.
With `COCCOCCOC(=O)OCn1ccc2c1c(=O)[nH]c(=S)n2CCOC(C)C` [Example 105, 2-(2-methoxyethoxy)ethyl {4-oxo-1-[2-(propan-2-yloxy)ethyl]-2-sulfanylidene-1H,2H,3H,4H,5H-pyrrolo[3,2-d]pyrimidin-5-yl}methyl carbonate] the SGF [1, 22] was 95%, the SIF [2, 23] was 84% and the “human Plasma stability” value (Plasma Stability; [20]) was 14%. The Papp at 90 min, 10 µM ([3]; Caco-2, pH 7.4, no unit printed at the place (tables the 9th table and the 10th table have no head)) was 24.3 ×10⁻⁶ cm/s.
With `CC(C)OCCn1c(SCOC(=O)C2CCNCC2)nc(=O)c2c1ccn2COC(=O)CCC(=O)O` [Example 133] the SGF [1, 10] was 82% remaining, the SIF [2, 11] was 97% remaining and the “human Plasma stability” value (Plasma Stability; [12]) was 7% remaining. The Papp at 90 min, 10 µM [3, 6] was < 0.198 ×10⁻⁶ cm/s.
With `CC(C)OCCn1c(=S)n(COC(=O)C(C)(C)C)c(=O)c2c1ccn2COC(=O)C(C)(C)C` [Example 143, 2,2-Dimethyl-propionic acid 5-(2,2-dimethyl-propionyloxymethyl)-1-(2-isopropoxy-ethyl)-4-oxo-2-thioxo-1,2,4,5-tetrahydro-pyrrolo[3,2-d]pyrimidin-3-ylmethyl ester] the SGF [1, 22] was 62%, the SIF [2, 23] was 82% and the “human Plasma stability” value (Plasma Stability; [20]) was 21%. The Papp at 90 min, 10 µM [3, 21] was 3 ×10⁻⁶ cm/s.
In the case of `CC(C)C[C@@H](NC(=O)OC(C)(C)C)C(=O)OCSc1nc(=O)c2c(ccn2COC(=O)[C@@H](CC(C)C)NC(=O)OC(C)(C)C)n1CCOC(C)C` [Example 318, {[5-({[(2R)-2-{[(tert-butoxy)carbonyl]amino}-4-methylpentanoyl]oxy}methyl)-4-oxo-1-[2-(propan-2-yloxy)ethyl]-1H,4H,5H-pyrrolo[3,2-d]pyrimidin-2-yl]sulfanyl}methyl (2R)-2-{[(tert-butoxy)carbonyl]amino}-4-methylpentanoate], the SGF ([1]; % remaining @ 1 h) is reported as 81%@ 1 h, the SIF ([2]; % remaining @ 1 h) is reported as 2%@ 1 h and the “human Plasma stability” value (Plasma Stability; % remaining @ 1 h) is reported as 85%@ 1 h. It also gave a Papp at 90 min, 10 µM ([3]; Caco-2, pH 7.4) of 25.4 ×10⁻⁶ cm/s.
In the case of `CC(C)OCCn1c(SCOC(=O)N(C)CC(F)(F)F)nc(=O)c2[nH]ccc21` [Example 94, ({4-oxo-1-[2-(propan-2-yloxy)ethyl]-1H,4H,5H-pyrrolo[3,2-d]pyrimidin-2-yl}sulfanyl)methyl N-methyl-N-(2,2,2-trifluoroethyl)carbamate], the SGF [1, 19] is reported as 99, the SIF [2, 19] is reported as 95 and the “human Plasma stability” value (Plasma Stability; [20]) is reported as 99% remaining. It also gave a Papp at 90 min, 10 µM [3, 21] of 15.1 ×10⁻⁶ cm/s.
For `CSCC[C@@H](N)C(=O)OCCC(=O)OCn1ccc2c1c(=O)[nH]c(=S)n2CCOC(C)C.O=C(O)C(F)(F)F` [Example 366, trifluoroacetic acid 3-oxo-3-({4-oxo-1-[2-(propan-2-yloxy)ethyl]-2-sulfanylidene-1H,2H,3H,4H,5H-pyrrolo[3,2-d]pyrimidin-5-yl}methoxy)propyl (2R)-2-amino-4-(methylsulfanyl)butanoate], the SGF ([1]; simulated gastric fluid, remaining at 1 h) was 76% remaining, the SIF ([2]; simulated intestinal fluid, remaining at 1 h) was 2% remaining and the “human Plasma stability” value (Plasma Stability; human plasma, remaining at 1 h) was 74% remaining. For the same molecule, the Papp at 90 min, 10 µM [3, 6] was < 0.76 ×10⁻⁶ cm/s.
In the case of `CC(C)OCCn1c(SCO)nc(=O)c2[nH]ccc21` [Example 336, 2-[(hydroxymethyl)sulfanyl]-1-[2-(propan-2-yloxy)ethyl]-1H,4H,5H-pyrrolo[3,2-d]pyrimidin-4-one], the SGF [1, 24] is reported as 93, the SIF [2, 24] is reported as 6 and the “human Plasma stability” value (Plasma Stability; % remaining @ 1 h) is reported as 73% remaining. For the same molecule, the Papp at 90 min, 10 µM ([3]; Caco-2, pH 7.4) was 1.82 ×10⁻⁶ cm/s.
With `CC(C)CNC(=O)OCSc1nc(=O)c2[nH]ccc2n1CCOC(C)C` [Example 186] the SGF [1, 13] was 86% @ 1 h, the SIF [2, 14] was 100% @ 1 h and the “human Plasma stability” value (Plasma Stability; [8]) was 98% @ 1 h. The Papp at 90 min, 10 µM [3, 9] was 7.23 ×10⁻⁶ cm/s.
For `CC(C)C[C@H](N)C(=O)OCSc1nc(=O)c2c(ccn2COC(=O)[C@@H](N)CC(C)C)n1CCOC(C)C.O=C(O)C(F)(F)F.O=C(O)C(F)(F)F` [Example 321, bis(trifluoroacetic acid) {[5-({[(2S)-2-amino-4-methylpentanoyl]oxy}methyl)-4-oxo-1-[2-(propan-2-yloxy)ethyl]-1H,4H,5H-pyrrolo[3,2-d]pyrimidin-2-yl]sulfanyl}methyl (2S)-2-amino-4-methylpentanoate], the SGF ([1]; % remaining @ 1 h) was 92%@ 1 h, the SIF ([2]; % remaining @ 1 h) was 2%@ 1 h and the “human Plasma stability” value (Plasma Stability; % remaining @ 1 h) was 1%@ 1 h. The Papp at 90 min, 10 µM ([3]; Caco-2, pH 7.4) was < 0.365 ×10⁻⁶ cm/s.
In the case of `COCCOCCN(C)C(=O)OCSc1nc(=O)c2c(ccn2COC(=O)N(C)CCOCCOC)n1CCOC(C)C` [Example 89, (2-{[({[2-(2-methoxyethoxy)ethyl](methyl)carbamoyl}oxy)methyl]sulfanyl}-4-oxo-1-[2-(propan-2-yloxy)ethyl]-1H,4H,5H-pyrrolo[3,2-d]pyrimidin-5-yl)methyl N-[2-(2-methoxyethoxy)ethyl]-N-methylcarbamate], the SGF [1, 22] is reported as 99%, the SIF [2, 23] is reported as 65% and the “human Plasma stability” value (Plasma Stability; [20]) is reported as 100%. It also gave a Papp at 90 min, 10 µM [3, 21] of 0.488 ×10⁻⁶ cm/s.
For `COC(=O)OCSc1nc(=O)c2c(ccn2CSc2nc(=O)c3[nH]ccc3n2CCOC(C)C)n1CCOC(C)C` [Example 199], the SGF [1, 13] was 47% remaining, the SIF [2, 14] was 79% remaining and the “human Plasma stability” value (Plasma Stability; [8]) was 46% remaining. The Papp at 90 min, 10 µM [3, 9] was 5.54 ×10⁻⁶ cm/s.
